Among the data in ChEMBL document CHEMBL1671741, “The development of ciprofloxacin resistance in Pseudomonas aeruginosa involves multiple response stages and multiple proteins” (2010) are MIC and Activity values, retold here.

In experiment [1] the test system is Pseudomonas aeruginosa. The experiment in a line: Antibacterial activity against Pseudomonas aeruginosa PAO1 harboring gabD::ISphoA/haha mutation by Etest. It is filed as functional.
In experiment [2] the test system is Pseudomonas aeruginosa. The experiment in a line: Antibacterial activity against wild type Pseudomonas aeruginosa PAO1 assessed as viable bacterial count by Etest. It is filed as functional.
The subject of experiment [3] is Pseudomonas aeruginosa. The experiment in a line: Antibacterial activity against Pseudomonas aeruginosa PAO1 harboring gatA::ISphoA/haha mutation by Etest. It counts as functional.
Experiment [4] relates to Pseudomonas aeruginosa. As to the kind of experiment: Antibacterial activity against Pseudomonas aeruginosa PAO1 harboring phoU::ISphoA/haha mutation by Etest. It counts as functional.
Experiment [5] deals with Pseudomonas aeruginosa. The experiment in a line: Antibacterial activity against Pseudomonas aeruginosa PAO1 harboring yaaA::ISphoA/haha mutation by Etest. It counts as functional.
Experiment [6] relates to Pseudomonas aeruginosa. The experiment in a line: Antibacterial activity against Pseudomonas aeruginosa PAO1 harboring gabD::ISlacZ/haha mutation by Etest. It counts as functional.
Experiment [7] relates to Pseudomonas aeruginosa. As to the kind of experiment: Antibacterial activity against Pseudomonas aeruginosa PAO1 harboring mmsA::ISphoA/haha mutation by Etest. It counts as functional.
For experiment [8], the system named is Pseudomonas aeruginosa. The experiment in a line: Antibacterial activity against Pseudomonas aeruginosa PAO1 horboring gabD mutant gene assessed as viable bacterial count at 8 times MIC after 48 hrs by Etest. It is filed as functional, organism-based.
The subject of experiment [9] is Pseudomonas aeruginosa. The experiment in a line: Antibacterial activity against Pseudomonas aeruginosa PAO1 horboring yaaA mutant gene assessed as viable bacterial count at 4 times MIC after 24 hrs by Etest. It is filed as functional, organism-based.
Experiment [10] concerns Pseudomonas aeruginosa. As to the kind of experiment: Antibacterial activity against Pseudomonas aeruginosa PAO1 horboring mmsA mutant gene assessed as viable bacterial count at 8 times MIC after 48 hrs by Etest. It counts as functional, organism-based.
For experiment [11], the system named is Pseudomonas aeruginosa. As to the kind of experiment: Antibacterial activity against wild type Pseudomonas aeruginosa PAK assessed as viable bacterial count at 0.5 times MIC after 48 hrs by Etest. It counts as functional, organism-based.
Experiment [12] has as its system Pseudomonas aeruginosa. As to the kind of experiment: Antibacterial activity against Pseudomonas aeruginosa PAO1 horboring mmsA mutant gene assessed as viable bacterial count at 4 times MIC after 24 hrs by Etest. It counts as functional, organism-based.
In experiment [13] the test system is Pseudomonas aeruginosa. The experiment in a line: Antibacterial activity against Pseudomonas aeruginosa PAO1 horboring gabD mutant gene assessed as viable bacterial count at 4 times MIC after 24 hrs by Etest. It counts as functional, organism-based.
Experiment [14] concerns Pseudomonas aeruginosa. As to the kind of experiment: Antibacterial activity against Pseudomonas aeruginosa PAO1 horboring yaaA mutant gene assessed as viable bacterial count at 8 times MIC after 48 hrs by Etest. It counts as functional, organism-based.

≈ marks a conversion by molar mass, not a printed value. Calls of active or inactive are those of the source. The rule behind the calls is not given here.

As for `C[C@@H](O)[C@H]1C(=O)N2C(C(=O)O)=C(SCCNC=N)C[C@H]12` [IMIPENEM ANHYDROUS], the MIC – broadly, the lowest concentration that inhibits growth of the organism – against Pseudomonas aeruginosa [1] is 1.5 µg/mL (≈ 5.01 µM); in the experiment with Pseudomonas aeruginosa [2] it was 4 µg/mL (≈ 13.4 µM); in the experiment with Pseudomonas aeruginosa [3] it was 4 µg/mL (≈ 13.4 µM); in the experiment on Pseudomonas aeruginosa [4], 4 µg/mL (≈ 13.4 µM); in the experiment on Pseudomonas aeruginosa [5] it was 2 µg/mL (≈ 6.68 µM); against Pseudomonas aeruginosa [6] it was 1.5 µg/mL (≈ 5.01 µM). Also, inhibition of growth against Pseudomonas aeruginosa [7] (MIC) required 1 µg/mL (≈ 3.34 µM).

For `O=C(O)c1cn(C2CC2)c2cc(N3CCNCC3)c(F)cc2c1=O` [CIPROFLOXACIN], inhibition of growth in the experiment on Pseudomonas aeruginosa [3] (MIC) required 0.19 µg/mL (≈ 0.573 µM). The outcome with Pseudomonas aeruginosa [8], in the experiment on Pseudomonas aeruginosa [9], in the experiment with Pseudomonas aeruginosa [10] and in the experiment on Pseudomonas aeruginosa [14] was Active. The result in the experiment with Pseudomonas aeruginosa [11], with Pseudomonas aeruginosa [12] and in the experiment with Pseudomonas aeruginosa [13] was inactive.

With GENTAMICIN, the MIC in the experiment on Pseudomonas aeruginosa [1] was 3 µg/mL; in the experiment on Pseudomonas aeruginosa [2] it was 2 µg/mL; in the experiment on Pseudomonas aeruginosa [3], 3 µg/mL; in the experiment with Pseudomonas aeruginosa [4], 3 µg/mL; in the experiment on Pseudomonas aeruginosa [5], 3 µg/mL; against Pseudomonas aeruginosa [6], 3 µg/mL. The compound also returned an MIC in the experiment on Pseudomonas aeruginosa [7] of 2 µg/mL.

`CC(C)(O/N=C(\C(=O)N[C@@H]1C(=O)N2C(C(=O)[O-])=C(C[n+]3ccccc3)CS[C@H]12)c1csc(N)n1)C(=O)O` [CEFTAZIDIME]: the MIC in the experiment with Pseudomonas aeruginosa [1] was determined as 1 µg/mL (≈ 1.83 µM); with Pseudomonas aeruginosa [2] it was 1 µg/mL (≈ 1.83 µM); against Pseudomonas aeruginosa [3], 1 µg/mL (≈ 1.83 µM); against Pseudomonas aeruginosa [4], 1.5 µg/mL (≈ 2.74 µM); against Pseudomonas aeruginosa [5], 0.75 µg/mL (≈ 1.37 µM); against Pseudomonas aeruginosa [6], 1 µg/mL (≈ 1.83 µM). This compound also came in with an MIC against Pseudomonas aeruginosa [7] of 1 µg/mL (≈ 1.83 µM).

As for `NC[C@H]1O[C@H](O[C@H]2[C@H](O)[C@@H](O[C@H]3O[C@H](CO)[C@@H](O)[C@H](N)[C@H]3O)[C@H](N)C[C@@H]2N)[C@H](N)C[C@@H]1O` [TOBRAMYCIN], the MIC in the experiment on Pseudomonas aeruginosa [1], with Pseudomonas aeruginosa [2], with Pseudomonas aeruginosa [3], in the experiment on Pseudomonas aeruginosa [4], with Pseudomonas aeruginosa [5] and in the experiment with Pseudomonas aeruginosa [6] was 2 µg/mL (≈ 4.28 µM) throughout. For the same compound, the MIC with Pseudomonas aeruginosa [7] turned out to be 1.5 µg/mL (≈ 3.21 µM).

For `C[C@H]1COc2c(N3CCN(C)CC3)c(F)cc3c(=O)c(C(=O)O)cn1c23.C[C@H]1COc2c(N3CCN(C)CC3)c(F)cc3c(=O)c(C(=O)O)cn1c23.O` [LEVOFLOXACIN], the MIC against Pseudomonas aeruginosa [1] was 0.25 µg/mL; with Pseudomonas aeruginosa [3] it was 0.5 µg/mL; with Pseudomonas aeruginosa [5], 0.25 µg/mL; against Pseudomonas aeruginosa [6], 0.25 µg/mL; in the experiment on Pseudomonas aeruginosa [7], 0.25 µg/mL.
